ChEMBL document CHEMBL1781888, “Marianins A and B, prenylated phenylpropanoids from Mariannaea camptospora” (J Nat Prod, 2011)
Converted amounts (≈) assume the structure as drawn. The source made the active and inactive calls. No cut-off for these calls is given here.

Experiments:
Micrococcus luteus = test: Antibacterial activity against Micrococcus luteus ATCC 9343; type: functional
Escherichia coli = test: Antibacterial activity against Escherichia coli NIH-JC2 at 30 microg/mL; type: functional, organism-based
Candida albicans = test: Antifungal activity against Candida albicans IFO1594 at 30 microg/mL; type: functional, organism-based
HeLa = test: Cytotoxicity against human HeLa cells after 48 hrs by MTT assay; type: functional, cell-based
MCF7 = test: Cytotoxicity against human MCF7 cells after 48 hrs by MTT assay; type: functional, cell-based; conditions: MCF7, 48 h

Row | SMILES | MIC (Micrococcus luteus) [µg/mL] | inhibition (Escherichia coli) | inhibition (Candida albicans) | IC50 (HeLa) [µM] | IC50 (MCF7) [µM]
1 | CC(C)=CCOc1cc(C)c2c(OCC=C(C)C)cc(=O)oc2c1 [MARIANIN A] | 15 (≈ 45.7 µM) | inactive | inactive | 34 | 39
2 | C=CC(C)(C)CC(=O)c1c(C)cc(OCC=C(C)C)cc1O [MARIANIN B] | 30 (≈ 99.2 µM) | inactive | inactive | > 100 | > 100
